From paper PMC8389907 (Journal of Medicinal Chemistry, 2021)
In brackets after ≈: the same amount, converted by molar mass. Like-named read-outs stand apart in the source and are kept apart here.

Tests used:
P. aeruginosa PAO1 [1] = assay: Minimum inhibitory concentration, broth dilution; format: cell-based; details: Pseudomonas aeruginosa; 24 h incubation at 37 °C, strain PAO1
Experimental: P. aeruginosa PAO1 was chosen as a model microorganism[53] and was grown overnight in a Luria Bertani (LB) medium at 37 °C on an orbital shaker at 200 rpm. Minimum inhibitory concentrations (MICs) of quinolone and quinolone derivatives were determined against P. aeruginosa PAO1 by a broth dilution method. Overnight cultures were diluted 100-fold to give a cellular concentration of 10^7 CFU/mL. […] The assays were performed at least three times.

MCF7/ADR cells = assay: MTT cell viability assay, DOX-resistant MCF7/ADR; format: cell-based, human; details: for IC50: Homo sapiens, NCI/ADR-RES, 72 h treatment, MTT; for R.I. (resistance index): MCF7/ADR vs MCF7
Experimental: (§1) The 3-(4,5-dimethylthiazol-2-yl)-2,5-diphenyltetrazolium bromide (MTT) assay was performed on all the cell lines tested as previously described[52] with minor modifications. Briefly, according to the growth profiles previously defined for each cell line, adequate numbers of cells were plated in each well of a 96-well plate in 0.1 mL of complete culture medium. Cells were allowed to attach for 24 h before the treatment at 37 °C for 72 h with the compounds at concentrations ranging between 0.1 and 75 μM, bringing the final volume to 0.2 mL/well. Each experiment included eight replications per concentration tested; control samples were run with 0.2% DMSO. At the end of the incubation period, MTT (0.05 mL of a 2 mg/mL stock solution in PBS) was added to each well for 3 h at 37 °C. Cell supernatants were then carefully removed, the blue formazan crystals formed through MTT reduction by metabolically active cells were dissolved in 0.120 mL of DMSO, and the corresponding optical densities were measured at 570 nm using a Universal Microplate Reader EL800 (Bio-Tek, Winooski, VT).
(§2) IC50 values were estimated from the resulting concentration–response curves by nonlinear regression analysis using GraphPad Prism software, v. 5.0 (GraphPad, San Diego, CA, USA). Differences between IC50 values were evaluated statistically by analysis of variance with a Bonferroni post-test for multiple comparisons.

PC3 cells [2] = assay: MTT cell viability assay, PC3; format: cell-based; details: Homo sapiens, PC-3; 72 h treatment, MTT; read-out: IC50 PC3
Experimental: (§3) The cell lines DU145 (HTB-81, human prostate carcinoma), PC3 (CRL-1435, human prostate adenocarcinoma), MCF7 (HTB-22, human breast adenocarcinoma), MDA-MB231 (HTB-26, human breast adenocarcinoma), and HCT116 (CCL-247, human colorectal carcinoma) were obtained from ATCC (American Type Culture Collection, Manassas, VA, USA); WH1 human fibroblasts were kindly provided by Dr. Guven.[51] All the cells were maintained under standard culture conditions (37 °C; 5% CO2) in the RMPI1640 medium (PC3, MCF7, and MDA-MB231 cells), while DU145 and HCT116 cells were in the DMEM and Iscove’s medium (WH1 cells) supplemented with 10% fetal calf serum, 1% glutamine, and 1% antibiotics mixture; for HCT116 and DU145 cells, 1% sodium pyruvate and 1% non-essential amino acids were also added to the culture medium.
as §1, §2

HCT116 cells = assay: MTT cell viability assay, HCT116; format: cell-based; details: Homo sapiens, HCT-116
Experimental: as §3, §1, §2

DU145 cells [3] = assay: MTT cell viability assay, DU145; format: cell-based; details: Homo sapiens, DU-145
Experimental: as §3, §1, §2

MDA-MB231 cells = assay: MTT cell viability assay, MDA-MB231; format: cell-based; details: Homo sapiens, MDA-MB-231; 72 h treatment, MTT; read-out: IC50 MDA-MB231
Experimental: as §3, §1, §2

MCF7 cells = assay: MTT cell viability assay, MCF7; format: cell-based; details: Homo sapiens, 72 h treatment, MTT, read-out: IC50 MCF7
Experimental: as §3, §1, §2

WH1 human fibroblasts = assay: MTT cell viability assay, WH1 fibroblasts; format: cell-based; details: Fibroblast, 72 h treatment
Experimental: as §3, §1, §2

S. aureus ATCC 6538P = assay: Antimicrobial photo-inactivation test, S. aureus; format: cell-based, Staphylococcus aureus; details: 10 μM, 10 min dark incubation, blue light 20 J/cm^2
Experimental: (§4) Upon the overnight growth of P. aeruginosa PAO1 and S. aureus ATCC6538P (methicillin susceptible S. aureus, MSSA), cultures were diluted in phosphate buffer (PBS–KH2PO4/K2HPO4, 10 mM, pH 7.4) to reach a concentration of ∼10^6 CFU/mL. Compound 7c was added to a cell suspension at a final concentration of 10 μM. Cells were incubated in the dark for 10 min and then irradiated under light at […] (20 J/cm^2) or incubated in the dark as a control. Soon after irradiation, the bacterial concentration was evaluated by the viability count technique. Briefly, an aliquot of each sample was 10-fold serially diluted in PBS and a volume of 10 μL of each diluted and undiluted sample was inoculated on LB agar. After overnight incubation at 37 °C, the corresponding cellular concentration was calculated and expressed as CFU/mL.

P. aeruginosa PAO1 [4] = assay: Antimicrobial photo-inactivation test, P. aeruginosa; format: cell-based, Pseudomonas aeruginosa; details: 10 μM, 10 min dark incubation, 405 ± 10 nm, 20 J/cm^2
Experimental: as §4

PC3 cells [5] = assay: MTT assay with 1 h irradiation, PC3; format: cell-based, human; details: 24 h treatment, 1 h white or blue light, 48 h drug-free medium
Experimental: (§5) To evaluate the contribution of NO release on cell viability, the MTT assay was performed on DU145 and PC3 cells following treatment with 7b and 7c with 1 h irradiation and 48 h incubation in a drug-free medium.
as §2

HBL100 cells = assay: MTT cell viability assay, non-tumorigenic HBL100; format: cell-based; details: Homo sapiens, HBL-100, 72 h treatment
Experimental: as §1, §2

DU145 cells [6] = assay: MTT assay with 1 h irradiation, DU145; format: cell-based, human; details: 24 h treatment, 1 h white or blue light, 48 h drug-free medium
Experimental: as §5, §2

[7] = 72 h treatment, MTT, read-out: IC50 HCT116
[8] = 72 h treatment, MTT, read-out: IC50 DU145

## O=C(O)c1cn(C2CC2)c2cc(N3CCNCC3)c(F)cc2c1=O [Cip, Ciprofloxacin, reference compound]
P. aeruginosa PAO1 [1]
  MIC: 1.82 ± 1.19 µg/mL (≈ 5.49 µM)
MCF7/ADR cells
  IC50: 19.1 ± 0.5 µM
PC3 cells [2]
  IC50: 33.9 ± 2.9 µM
HCT116 cells; [7]
  IC50: 31.5 ± 1.5 µM
DU145 cells [3]; [8]
  IC50: 24.9 ± 0.8 µM
MDA-MB231 cells
  IC50: 19.9 ± 3.6 µM
MCF7 cells
  IC50: 8.85 ± 0.09 µM

## CCn1cc(C(=O)O)c(=O)c2cc(F)c(N3CCN(CCNc4ccc([N+](=O)[O-])c(C(F)(F)F)c4)CC3)cc21 [Compound 7c, 1-Ethyl-6-fluoro-7-(4-(2-((4-nitro-3-(trifluoromethyl)phenyl)amino)ethyl)piperazin-1-yl)-4-oxo-1,4-dihydroquinoline-3-carboxylic Acid]
WH1 human fibroblasts
  IC50: 3.51 ± 0.4 µM
S. aureus ATCC 6538P
  decrease in viable S. aureus with respect to the dark incubated control: 2 log unit
P. aeruginosa PAO1 [4]
  antimicrobial activity upon blue light irradiation: did not show any antimicrobial activity
MCF7/ADR cells
  IC50: 18.3 ± 1.4 µM
  R.I. (resistance index): 8.1
PC3 cells [5]
  IC50, irradiated vs kept in the dark, PC3: no differences in IC50 values
PC3 cells [2]
  IC50: 2.33 µM
HBL100 cells
  IC50: 11.1 ± 0.2 µM
DU145 cells [6]
  IC50, irradiated vs kept in the dark, DU145: no differences in IC50 values
HCT116 cells; supplement csv, unit inferred, read-out: HCT116 IC50
  IC50: 2.15 ± 0.39 µM
DU145 cells [3]; supplement csv, unit inferred, read-out: DU145 IC50
  IC50: 1.57 ± 0.59 µM
MDA-MB231 cells
  IC50: 1.52 µM
MCF7 cells
  IC50: 2.27 µM

## CCn1cc(C(=O)O)c(=O)c2cc(F)c(N3CCNCC3)cc21 [Nor, Norfloxacin, reference compound]
WH1 human fibroblasts
  IC50: 14.1 ± 2.1 µM
P. aeruginosa PAO1 [1]
  MIC: 4.16 ± 1.8 µg/mL (≈ 13 µM)
MCF7/ADR cells
  IC50: 20.1 ± 1.4 µM
  R.I. (resistance index): 1.0
PC3 cells [2]
  IC50: 33.6 ± 3 µM
HBL100 cells
  IC50: 12.4 ± 0.8 µM
HCT116 cells; [7]
  IC50: 12.5 ± 2.6 µM
DU145 cells [3]; [8]
  IC50: 12 ± 0.6 µM
MDA-MB231 cells
  IC50: 14.9 ± 2.7 µM
MCF7 cells
  IC50: 19.4 ± 0.7 µM
